The record followed here is patent US6538001B1, “Crystalline modification of 5-fluoro-1-(tetrahydro-2-furyl) uracil and complex compounds based thereon, producing antineoplastic effect” (priority 2001, dated 2003).

Data set [1] is described as follows: Determination of solubility (USP XXIII article Solubility). It is filed as physicochemical. On the procedure:
The solubility was determined in accordance with the requirements set out in the article “Solubility”, USPXXTIII (1995, p. 2071).

Data set [2] concerns uterine neck cancer cells. In words: Cytotoxicity (MTT) on a culture of uterine neck cancer cells. It is filed as cell-based. Also noted: Effect on the proliferation of cancer cells: dose or concentration left out as unconfirmed. The settings on record: for Optical density at 540 nm: 4 days. As for the experimental part: The determination was carried out by following the known procedure (Mosmann N. T., J. Immunology Methods, 1983, vol. 65, 55-63, Carmichel J. et al., Cancer Res., 1987, vol. 47, 936-946) on a culture of uterine neck cancer cells. The cells were grown at 37° C. on the RPMI 1640 medium with additives of a 10%embryonal serum of cows and 200 u/ml of gentamicin. CO2 content in the incubator atmosphere was 10%. The cells which were in the exponential phase of growth were suspended with trypsin and inoculated in an amount of 4×10^3 into each socket of a 96-socket dish for monolayer cultures. Solutions of samples of the preparations to be investigated were prepared by dissolving 23 mg of each preparation in 10 ml of a culture broth, 10^−2 M solutions being thus obtained. These were starting solutions for obtaining solutions of a lower concentration by diluting them with the culture broth. Directly before adding the solutions to the cells, these solutions were sterilized by filtering through millipore filters. One day after the inoculation of the cells, solutions of samples of the preparations to be investigated in prescribed concentrations were added into each socket of the dish. After that the cells grew for another 4 days.
All in all, 9 concentrations of each of the 4 samples of the investigated preparations were tested.
Quantitative estimation of the cytotoxicity of the investigated preparations was carried out with the use of 3-(4,5-dimethylthiazol-2-yl)-2,5-diphenyltetrazolium bromide (MTT). […] 0.5 mg/ml was added into each socket of the dish 4 hours before the completion of cells cultivation. On completion of the incubation, the culture broth was removed from the dish sockets, the formasane crystals were dissolved, and the cells were scanned on an automatic Multiscan MCC/340P reader at the 540 nm wavelength. The results were calculated in percent of the cells subjected to the effect of the investigated preparations, absorbed at 540 nm, as against the absorption of control cells.
The action of each concentration of the investigated preparations on cancer cells was estimated from the results of 4-6 independent experiments, treated by methods of mathematical statistics.

Converted amounts (≈) assume the structure as drawn.

Regarding `O=c1[nH]c(=O)n(C2CCCO2)cc1F` (stereo not drawn) [Form V of tegafur, 5-fluoro-1-(tetrahydro-2-furyl)uracil], the “Solubility compared with pharmacopeial tegafur” value in data set [1] (in words) was “higher than the solubility of pharmacopeial tegafur”. For the same compound, the “Solubility, % with respect to tegafur” value in data set [1] (temperature of solvent 20 °C) turned out to be 187.5%. In addition, the “Optical density at 540 nm” value in data set [2] (5 × 10^−3 M (on conversion to tegafur), MTT) was determined as 0.25 ± 0.02; in data set [2] (5 × 10^−4 M (on conversion to tegafur), MTT), 0.44 ± 0.05; in data set [2] (5 × 10^−5 M (on conversion to tegafur), MTT), 0.70 ± 0.03; in data set [2] (5 × 10^−6 M (on conversion to tegafur), MTT) it was 0.73 ± 0.03; in data set [2] (10^−2 M (on conversion to tegafur), MTT), 0.16 ± 0.01; in data set [2] (10^−3 M (on conversion to tegafur), MTT), 0.35 ± 0.02. Moreover, the “Optical density at 540 nm” value in data set [2] (10^−4 M (on conversion to tegafur), MTT) is 0.56 ± 0.06; in data set [2] (10^−5 M (on conversion to tegafur), MTT) it was 0.73 ± 0.08; in data set [2] (10^−6 M (on conversion to tegafur), MTT) it was 0.79 ± 0.08. Further, the “Inhibition of proliferation more intensive than tegafur” value in data set [2] (at the concentration of 10^−4 M, relative to tegafur) worked out at 70%. In data set [2] (uterine neck cancer cells, MTT), the “Concentration at which the proliferation of cells is inhibited” value came to 50 µM.
As to `O=c1[nH]c(=O)n(C2CCCO2)cc1F` (stereo not drawn) [pharmacopeial tegafur, 5-fluoro-1-(tetrahydro-2-furyl)uracil, reference compound], the solubility (usually the concentration that dissolves in the medium under given conditions) in data set [1] (20 °C, thermodynamic from solid, temperature of solvent 20 °C) was found to be 8000 µg/mL (≈ 40 mM). Moreover, the “Optical density at 540 nm” value came out at 0.28 ± 0.005 in data set [2] (5 × 10^−3 M (on conversion to tegafur), MTT, listed as Pharmacopeial tegafur); 0.56 ± 0.12 in data set [2] (5 × 10^−4 M (on conversion to tegafur), MTT, listed as Pharmacopeial tegafur); 0.80 ± 0.10 in data set [2] (5 × 10^−5 M (on conversion to tegafur), MTT, listed as Pharmacopeial tegafur); 0.76 ± 0.08 in data set [2] (5 × 10^−6 M (on conversion to tegafur), MTT, listed as Pharmacopeial tegafur); 0.26 ± 0.04 in data set [2] (10^−2 M (on conversion to tegafur), MTT, listed as Pharmacopeial tegafur); 0.45 ± 0.06 in data set [2] (10^−3 M (on conversion to tegafur), MTT, listed as Pharmacopeial tegafur). For the same compound, the “Optical density at 540 nm” value was found to be 0.81 ± 0.13 in data set [2] (10^−4 M (on conversion to tegafur), MTT, listed as Pharmacopeial tegafur); 0.81 ± 0.09 in data set [2] (10^−5 M (on conversion to tegafur), MTT, listed as Pharmacopeial tegafur); 0.76 ± 0.05 in data set [2] (10^−6 M (on conversion to tegafur), MTT, listed as Pharmacopeial tegafur). Further, the “Effect on the proliferation of cancer cells” value in data set [2] (range of concentrations of 10^−6) is “does not affect the proliferation of cancer cells”.
